Test system: MV4-11 cells
Test: Cell proliferation assay MV4;11 (CellTiter-Glo, 72 hours)
Format: cell-based
Conditions: Homo sapiens; MV4;11 leukemia cell line, 72 hours; read-out: MV4; 11 IC50
Method in brief: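 MV4-11 cells (MLL1-AF4 fusion) exposed 72 h at 37 °C to 8 compound concentrations, final 0.632–2000 nM. Viability by CellTiter-Glo luminescence as % of vehicle RLU; % max inhibition = 100 − viability at top concentration.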

Structure (SMILES)	IC50 [nM]
CC(C)N(C(=O)c1cc(F)ccc1Oc1cncnc1N1CC2(CCN(C[C@@H]3CC[C@@H](NS(=O)(=O)N4CCC4)CO3)CC2)C1)C(C)C [Example 88, 2-((4-(7-(((2S,5R)-5-(Azetidine-1-sulfonamido)tetrahydro-2H-pyran-2-yl)methyl)-2,7-diazaspiro[3.5]nonan-2-yl)pyrimidin-5-yl)oxy)-5-fluoro-N,N-diisopropylbenzamide]	< 100
CC(C)N(C(=O)c1cc(F)ccc1Oc1cncnc1N1CC2(CCN(C[C@@H]3CC[C@@H](NS(=O)(=O)N(C)C(C)C)CO3)CC2)C1)C(C)C [Example 89, 5-Fluoro-N,N-diisopropyl-2-((4-(7-(((2S,5R)-5-((N-isopropyl-N-methylsulfamoyl)amino)tetrahydro-2H-pyran-2-yl)methyl)-2,7-diazaspiro[3.5]nonan-2-yl)pyrimidin-5-yl)oxy)benzamide]	< 100
CC(C)N(C(=O)c1cc(F)ccc1Oc1cncnc1N1CC2(CCN(C[C@@H]3CC[C@@H](NS(N)(=O)=O)CO3)CC2)C1)C(C)C [Example 90, 5-Fluoro-N,N-diisopropyl-2-((4-(7-(((2S,5R)-5-(sulfamoylamino)tetrahydro-2H-pyran-2-yl)methyl)-2,7-diazaspiro[3.5]nonan-2-yl)pyrimidin-5-yl)oxy)benzamide]	< 100
CC(C)N(C(=O)c1cc(F)ccc1Oc1cncnc1N1CC2(CCN(C[C@@H]3CC[C@@H](NS(=O)(=O)N(C)C)CO3)CC2)C1)C1CC1 [Example 93, N-Cyclopropyl-2-((4-(7-(((2S,5R)-5-((N,N-dimethylsulfamoyl)amino)tetrahydro-2H-pyran-2-yl)methyl)-2,7-diazaspiro[3.5]nonan-2-yl)pyrimidin-5-yl)oxy)-5-fluoro-N-isopropylbenzamide]	< 100
CC(C)N(CC(F)F)C(=O)c1cc(F)ccc1Oc1cncnc1N1CC2(CCN(C[C@@H]3CC[C@@H](NS(=O)(=O)N4CCOCC4)CO3)CC2)C1 [Example 94, N-(2,2-Difluoroethyl)-5-fluoro-N-isopropyl-2-((4-(7-(((2S,5R)-5-(morpholine-4-sulfonamido)tetrahydro-2H-pyran-2-yl)methyl)-2,7-diazaspiro[3.5]nonan-2-yl)pyrimidin-5-yl)oxy)benzamide]	< 100
CC(C)N(CC(F)F)C(=O)c1cc(F)ccc1Oc1cncnc1N1CC2(CCN(C[C@@H]3CC[C@@H](NS(=O)(=O)N(C)C)CO3)CC2)C1 [Example 95, N-(2,2-Difluoroethyl)-2-((4-(7-(((2S,5R)-5-((N,N-dimethylsulfamoyl)amino)tetrahydro-2H-pyran-2-yl)methyl)-2,7-diazaspiro[3.5]nonan-2-yl)pyrimidin-5-yl)oxy)-5-fluoro-N-isopropylbenzamide]	< 100
CC(C)N(CC(F)F)C(=O)c1cc(F)ccc1Oc1cncnc1N1CC2(CCN(C[C@@H]3CC[C@@H](NS(C)(=O)=O)CO3)CC2)C1 [Example 96, N-(2,2-Difluoroethyl)-5-fluoro-N-isopropyl-2-((4-(7-(((2S,5R)-5-(methylsulfonamido)tetrahydro-2H-pyran-2-yl)methyl)-2,7-diazaspiro[3.5]nonan-2-yl)pyrimidin-5-yl)oxy)benzamide]	< 100
CCN(CC)S(=O)(=O)N[C@@H]1CC[C@@H](CN2CCC3(CC2)CN(c2ncncc2Oc2ccc(F)cc2C(=O)N(CC(F)F)C(C)C)C3)OC1 [Example 97, 2-((4-(7-(((2S,5R)-5-((N,N-Diethylsulfamoyl)amino)tetrahydro-2H-pyran-2-yl)methyl)-2,7-diazaspiro[3.5]nonan-2-yl)pyrimidin-5-yl)oxy)-N-(2,2-difluoroethyl)-5-fluoro-N-isopropylbenzamide]	< 100
CC(C)N(CC(F)F)C(=O)c1cc(F)ccc1Oc1cncnc1N1CC2(CCN(C[C@@H]3CC[C@@H](NS(=O)(=O)N4CCC4)CO3)CC2)C1 [Example 99, 2-((4-(7-(((2S,5R)-5-(Azetidine-1-sulfonamido)tetrahydro-2H-pyran-2-yl)methyl)-2,7-diazaspiro[3.5]nonan-2-yl)pyrimidin-5-yl)oxy)-N-(2,2-difluoroethyl)-5-fluoro-N-isopropylbenzamide]	< 100
CC(C)N(CC(F)F)C(=O)c1cc(F)ccc1Oc1cncnc1N1CC2(CCN(C[C@@H]3CC[C@@H](NS(=O)(=O)N(C)C(C)C)CO3)CC2)C1 [Example 101, N-(2,2-Difluoroethyl)-5-fluoro-N-isopropyl-2-((4-(7-(((2S,5R)-5-((N-isopropyl-N-methylsulfamoyl)amino)tetrahydro-2H-pyran-2-yl)methyl)-2,7-diazaspiro[3.5]nonan-2-yl)pyrimidin-5-yl)oxy)benzamide]	< 100
CNS(=O)(=O)N[C@@H]1CC[C@@H](CN2CCC3(CC2)CN(c2ncncc2Oc2ccc(F)cc2C(=O)N(CC(F)F)C(C)C)C3)OC1 [Example 102, N-(2,2-Difluoroethyl)-5-fluoro-N-isopropyl-2-((4-(7-(((2S,5R)-5-((N-methylsulfamoyl)amino)tetrahydro-2H-pyran-2-yl)methyl)-2,7-diazaspiro[3.5]nonan-2-yl)pyrimidin-5-yl)oxy)benzamide]	< 100
CC(C)N(CC(F)(F)F)C(=O)c1cc(F)ccc1Oc1cncnc1N1CC2(CCN(C[C@@H]3CC[C@@H](NS(=O)(=O)N(C)C)CO3)CC2)C1 [Example 107, 2-((4-(7-(((2S,5R)-5-((N,N-Dimethylsulfamoyl)amino)tetrahydro-2H-pyran-2-yl)methyl)-2,7-diazaspiro[3.5]nonan-2-yl)pyrimidin-5-yl)oxy)-5-fluoro-N-isopropyl-N-(2,2,2-trifluoroethyl)benzamide]	< 100
CC(C)N(CC(F)(F)F)C(=O)c1cc(F)ccc1Oc1cncnc1N1CC2(CCN(C[C@@H]3CC[C@@H](NS(=O)(=O)N4CCOCC4)CO3)CC2)C1 [Example 108, 5-Fluoro-N-isopropyl-2-((4-(7-(((2S,5R)-5-(morpholine-4-sulfonamido)tetrahydro-2H-pyran-2-yl)methyl)-2,7-diazaspiro[3.5]nonan-2-yl)pyrimidin-5-yl)oxy)-N-(2,2,2-trifluoroethyl)benzamide]	< 100
CC(C)N(CC(F)(F)F)C(=O)c1cc(F)ccc1Oc1cncnc1N1CC2(CCN(C[C@@H]3CC[C@@H](NS(=O)(=O)C(C)C)CO3)CC2)C1 [Example 109, 5-Fluoro-N-isopropyl-2-((4-(7-(((2S,5R)-5-((1-methylethyl)sulfonamido)tetrahydro-2H-pyran-2-yl)methyl)-2,7-diazaspiro[3.5]nonan-2-yl)pyrimidin-5-yl)oxy)-N-(2,2,2-trifluoroethyl)benzamide]	< 100
CC(C)N(C(=O)c1cc(F)ccc1Oc1cncnc1N1CC2(CCN(C[C@@H]3CC[C@@H](NS(=O)(=O)C(C)C)CO3)CC2)C1)C1CC(F)(F)C1 [Example 110, N-(3,3-Difluorocyclobutyl)-5-fluoro-N-isopropyl-2-((4-(7-(((2S,5R)-5-((1-methylethyl)sulfonamido)tetrahydro-2H-pyran-2-yl)methyl)-2,7-diazaspiro[3.5]nonan-2-yl)pyrimidin-5-yl)oxy)benzamide]	< 100
CC(C)N(C(=O)c1cc(F)ccc1Oc1cncnc1N1CC2(CCN(C[C@@H]3CC[C@@H](NS(=O)(=O)C4CC4)CO3)CC2)C1)C1CC(F)(F)C1 [Example 111, 2-((4-(7-(((2S,5R)-5-(Cyclopropanesulfonamido)tetrahydro-2H-pyran-2-yl)methyl)-2,7-diazaspiro[3.5]nonan-2-yl)pyrimidin-5-yl)oxy)-N-(3,3-difluorocyclobutyl)-5-fluoro-N-isopropylbenzamide]	< 100
CC(C)N(C(=O)c1cc(F)ccc1Oc1cncnc1N1CC2(CCN(C[C@@H]3CC[C@@H](NS(=O)(=O)N(C)C)CO3)CC2)C1)C1CC(F)(F)C1 [Example 113, N-(3,3-Difluorocyclobutyl)-2-((4-(7-(((2S,5R)-5-((N,N-dimethylsulfamoyl)amino)tetrahydro-2H-pyran-2-yl)methyl)-2,7-diazaspiro[3.5]nonan-2-yl)pyrimidin-5-yl)oxy)-5-fluoro-N-isopropylbenzamide]	< 100
CCN(CC)S(=O)(=O)N[C@@H]1CC[C@@H](CN2CCC3(CC2)CN(c2ncncc2Oc2ccc(F)cc2C(=O)N(C(C)C)C2CC(F)(F)C2)C3)OC1 [Example 114, 2-((4-(7-(((2S,5R)-5-((N,N-Diethylsulfamoyl)amino)tetrahydro-2H-pyran-2-yl)methyl)-2,7-diazaspiro[3.5]nonan-2-yl)pyrimidin-5-yl)oxy)-N-(3,3-difluorocyclobutyl)-5-fluoro-N-isopropylbenzamide]	< 100
CC(C)N(C(=O)c1cc(F)ccc1Oc1cncnc1N1CC2(CCN(C[C@@H]3CC[C@@H](NS(=O)(=O)C4COC4)CO3)CC2)C1)C1CC(F)(F)C1 [Example 115, N-(3,3-Difluorocyclobutyl)-5-fluoro-N-isopropyl-2-((4-(7-(((2S,5R)-5-(oxetane-3-sulfonamido)tetrahydro-2H-pyran-2-yl)methyl)-2,7-diazaspiro[3.5]nonan-2-yl)pyrimidin-5-yl)oxy)benzamide]	< 100
CC(C)N(C(=O)c1cc(F)ccc1Oc1cncnc1N1CC2(CCN(C[C@@H]3CC[C@@H](NS(=O)(=O)N4CCOCC4)CO3)CC2)C1)C1CC(F)(F)C1 [Example 116, N-(3,3-Difluorocyclobutyl)-5-fluoro-N-isopropyl-2-((4-(7-(((2S,5R)-5-(morpholine-4-sulfonamido)tetrahydro-2H-pyran-2-yl)methyl)-2,7-diazaspiro[3.5]nonan-2-yl)pyrimidin-5-yl)oxy)benzamide]	< 100
CC(C)N(C(=O)c1cc(F)ccc1Oc1cncnc1N1CC2(CCN(C[C@@H]3CC[C@@H](NS(N)(=O)=O)CO3)CC2)C1)C1CC(F)(F)C1 [Example 117, N-(3,3-Difluorocyclobutyl)-5-fluoro-N-isopropyl-2-((4-(7-(((2S,5R)-5-(sulfamoylamino)tetrahydro-2H-pyran-2-yl)methyl)-2,7-diazaspiro[3.5]nonan-2-yl)pyrimidin-5-yl)oxy)benzamide]	< 100

From patent publication US11919901B2 (Syndax Pharmaceuticals, Inc., priority 2021, dated 2024)
